# Laboratory results from the pKa sets of Baltruschat and Czodrowski (2020).
# Settings: acidic group
row,SMILES,pKa
1,CC[Si](C)(C)CCCC(=O)O,5.02
2,[NH3+]CCCCCCC(=O)O,4.44
3,CCCc1nnn[nH]1,5.61
4,S=C(Nc1ccc(Cl)c(Cl)c1)c1ccccc1,9.96
5,Cc1cccc(C(=O)O)c1C,3.73
6,Cn1cnc2nc(N)[nH+]c(O)c21,3.57
7,O=C(c1ccccc1)c1ccc([O-])[n+](O)c1,5.13
8,O=S(=O)([O-])c1cc(O)cc2cn[nH]c12,9.65
9,C(CSCCc1nnn[nH]1)SCCc1nnn[n-]1,5.64
10,O=[N+]([O-])c1ccc(O)c(C[NH+]2CCCCC2)c1,5.88
11,C[C@]12C[C@H](C(=O)O)OC(=O)[C@H]1CC[C@@]1(C)[C@@H]2[C@H]2CCC1(O)C(=O)O2,3.5
12,CN1C(=O)C2(CCCCC2)NC1=S,11.2
13,O=C1CC[C@@H](C(=O)O)N1,3.4
14,COc1cc(C(=O)O)cc(OC)c1O,4.2
15,O/N=C/c1ccc(O)cc1,8.78
16,CC(c1ccc([N+](=O)[O-])cc1)[N+](=O)[O-] (centres undefined),6.51
17,O=Cc1cccc(O)c1,8.86
18,CCO/C([O-])=N/c1ncnc2nc[nH]c12,12.2
19,O=[N+]([O-])c1cc(Cl)c(O)c(Cl)c1,3.7
20,O=c1cc(-c2ccc(O)cc2)oc2ccccc12,8.27
21,C=C(C)[C@H]1C[NH2+][C@H](C(=O)[O-])[C@H]1CC(=O)O,4.43
22,Nc1c2ccccc2[nH+]c2c(O)cccc12,7.05
23,O=C(Cc1ccccc1)c1cc[n+](Cc2cccc([N+](=O)[O-])c2)cc1,8.68
24,N#CC(C#N)=NNc1ccc(Cl)cc1,6.15
25,Cc1ccc(NC=S)cc1,11.6
26,CC(N)c1nnn[n-]1 (centres undefined),8.77
27,O=C([O-])/C(=N\O)c1ccccc1,10.9

row,SMILES,pKa
1,Oc1cccc[nH+]1,0.75
2,C/C(=N/O)c1ccc(O)cc1O,8.35
3,C[NH+](C)Cc1cc(Cl)ccc1O,8.02
4,CC(=O)OO,8.19
5,C/C(=N\O)C(=O)c1ccccc1,9.25
6,C[n+]1ccccc1O,0.32
7,CC(C)(O)C(C(=O)O)c1ccc(-c2ccccc2)cc1 (centres undefined),3.76
8,CBr,15.4
9,CCC(P)C(=O)O (centres undefined),4.08
10,COc1ccc(O)c(CNC(CO)C(=O)[O-])c1 (centres undefined),10.4
11,Nc1nc2cc3ccccc3cc2[nH]1,12.8
12,O=C([O-])CCCC(=O)NOCc1ccccc1,10.2
13,CCCCC(CC)C(=O)O[C@H]1O[C@@H](C(=O)O)[C@H](O)[C@@H](O)[C@@H]1O (some centres undefined),3.08
14,CC1(C)OC(=O)NC1=O,6.15
15,O=P([O-])(O)c1cn2c([nH+]1)[C@@H](O)[C@H](O)[C@@H](O)[C@@H]2CO,4.84
16,O/N=C/C(Cl)=N\O,8.24
17,CSc1ccccc1C(=O)O,3.89
18,O=S(=O)([O-])c1cc(O)c2cn[nH]c2c1,8.1
19,CCOC(=O)COc1ccc(C(=O)c2ccc(O)c(C[NH3+])c2)c(Cl)c1Cl,6.38
20,CC(=O)CC(=S)Nc1cccc(C)c1,7.56
21,O=[N+]([O-])c1ccc(O)c(C[NH+]2CCOCCOCCOCCOCCOCC2)c1,5.77
22,CC(O)C(C(=O)O)c1ccc(C2CCCCC2)cc1 (centres undefined),4.21
23,CNc1nc(C)nc2[nH]ncc12,11.3
24,Fc1ccc(NC(=S)c2ccccc2)cc1,10.8
25,Nc1nccc2c1[nH+]cn2CCOCP(=O)([O-])O,6.56
26,[O-]c1ccc(O)cc1Br,10.7
27,CC(C)(C(=O)O)c1nnnn1C1CCCCC1,3.7

row,SMILES,pKa
1,C[n+]1ccc2ccccc2c1S,-2.13
2,CC(S)C(=O)O (centres undefined),3.35
3,Nc1c2ccccc2[nH+]c2ccc(O)cc12,7.71
4,O=[N+]([O-])c1cccc([Se](=O)O)c1,4.07
5,C[n+]1cccc2c(S)cccc21,3.22
6,O=C(O)C#CI,2
7,CC(=O)Nc1nnc(-c2ccccc2)s1,8.9
8,CCC1(C2=CCCCC2)C(=O)NC(=S)NC1=O,7.12
9,OCO,12.8
10,CCOC(=O)COc1ccc(S(=O)(=O)c2ccc(O)c(C[NH3+])c2)c(Cl)c1Cl,6.67
11,CC(c1cccc(F)c1)[N+](=O)[O-] (centres undefined),7.05
12,CC(S)C(=O)[O-] (centres undefined),10.1
13,N#CC(C#N)=NNc1ccccc1[N+](=O)[O-],5.8
14,C[NH+](C)CCCCNC(=O)/C=N/O,8.81
15,O=C([O-])CCC(=O)C=C=Cc1ccccc1,13.3
16,O=C(O)[c+]1cccccc1,3.29
17,O=C(O)c1ccc(CCl)cc1,4.13
18,Oc1ccc2cc3ccccc3cc2c1,9.92
19,Oc1[nH]c2ccccc2[nH+]1,-1.7
20,CC[NH+]1CCC[C@@H]1CNC(=O)c1c(O)c(Cl)cc(Cl)c1OC,5.75
21,Oc1cc(O)c2ccccc2[nH+]1,0.76
22,O=C1NC(=O)C(Cc2ccccc2)N1 (centres undefined),9.03
23,O=C1Cc2c1ccc(O)c2Br,5.75
24,CC(C)(C)C1CCn2nnnc2C(C(=O)O)C1 (centres undefined),4.4
25,Nc1ccc(S(=O)(=O)Nc2ccc(Br)nc2)cc1,7.12
26,O=C(O)Cc1ccsc1,4.07

# Same assay, conditions: basic group
row,SMILES,pKa
1,Oc1ccc(Cl)cc1CN1CCCC1,11.7
2,CN(C)CCc1ccc(O)cc1,9.8
3,c1cc(N2CCOCC2)ccc1N1CCCCC1,6.7
4,NS(=O)(=O)c1ccccc1C(=O)O,3.14
